ChEMBL document CHEMBL1138916, “Design and synthesis of the first generation of dithiolane thiazolidinedione- and phenylacetic acid-based PPARgamma agonists” (J Med Chem, 2006)
≈ marks a conversion by molar mass, not a printed value. Where “and” joins values, the source holds several entries; their conditions need not be identical. Equal entries are not always repeated. One block for each compound: values may come before it. Calls of active or inactive are those of the source. No cut-off for these calls is given here.

Legend:
[1] = molecular target: T1, Peroxisome proliferator-activated receptor gamma (Homo sapiens) (UniProt P37231); assay: Transactivation of PPARgamma up to 30 uM in CV1 cells; assay type: functional, cell-based; conditions: CV-1
T1 sequence (whole entry): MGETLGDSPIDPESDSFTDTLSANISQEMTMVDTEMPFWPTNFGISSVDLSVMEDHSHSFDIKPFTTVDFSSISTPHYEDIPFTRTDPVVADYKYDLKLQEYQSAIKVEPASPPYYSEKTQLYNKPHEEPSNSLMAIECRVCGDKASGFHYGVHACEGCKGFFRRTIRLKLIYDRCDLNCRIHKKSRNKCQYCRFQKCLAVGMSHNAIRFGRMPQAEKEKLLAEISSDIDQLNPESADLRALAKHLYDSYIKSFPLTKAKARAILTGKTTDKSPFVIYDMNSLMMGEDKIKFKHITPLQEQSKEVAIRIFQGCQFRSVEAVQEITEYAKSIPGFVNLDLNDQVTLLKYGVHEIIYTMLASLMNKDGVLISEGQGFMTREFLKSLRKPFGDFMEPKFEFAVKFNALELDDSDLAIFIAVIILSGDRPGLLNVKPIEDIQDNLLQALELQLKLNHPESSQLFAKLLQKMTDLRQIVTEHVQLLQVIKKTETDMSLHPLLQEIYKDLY

[2] = molecular target: T2, Peroxisome proliferator-activated receptor gamma (Homo sapiens, UniProt P37231)
T2 sequence (P37231 whole entry): T1 sequence (whole entry)
Description: Transactivation of PPARgamma in CV1 cells

[3] = molecular target: T1, Peroxisome proliferator-activated receptor gamma (Homo sapiens); assay: Transactivation of PPARgamma at 10 uM in CV1 cells; assay type: functional, cell-based; conditions: CV-1
T-cell [4] = assay: Inhibition of PHA/PMA-induced IL2 production in human T lymphocytes at 10 uM; assay type: functional, cell-based
Keratinocyte = assay: Antiproliferative activity against human keratinocytes; assay type: functional, cell-based
MCF7 = assay: Antiproliferative activity against human MCF7 cell line; assay type: functional, cell-based
HT-29 = assay: Antiproliferative activity against human HT29 cell line; assay type: functional, cell-based
T-cell [5] = assay: Inhibition of PHA/PMA-induced IL2 production in human T lymphocytes; assay type: functional
3T3-L1 = assay: Induction of adipogenesis in mouse 3T3 L1 preadipocytes; assay type: functional, cell-based
Rattus norvegicus [6] = assay: Reduction in triglycerides level in Zucker fa/fa rat at 100 mg/kg relative to control; assay type: functional; design: scale not given: the % may be the effect or the level left
[7] = Solubility in water; assay type: physicochemical
Rattus norvegicus [8] = assay: Reduction in glucose level in Zucker fa/fa rat at 100 mg/kg relative to control; assay type: functional

SMILES: CN(CCCCC1CCSS1)CCOc1ccc(CC2SC(=O)NC2=O)cc1 (stereo unspecified) [listing 1 of 3 here]
- EC50 [2]: 28 µM

SMILES: CN(CCOc1ccc(CC2SC(=O)NC2=O)cc1)C(=O)CCCCC(S)CCSC(=O)CCC(=O)O (stereo unspecified)
- EC50 [2]: 0.02 µM
- Activity [3]: 177

SMILES: CN(CCCCC1CCSS1)CCOc1ccc(CC2SC(=O)NC2=O)cc1 (stereo unspecified) [listing 2 of 3 here]
- EC50 [2]: 11.1 µM

SMILES: CN(CCOc1ccc(CC2SC(=O)NC2=O)cc1)C(=O)CCCCC(CCSC(=O)CN)SC(=O)CN.Cl.Cl (stereo unspecified)
- EC50 [2]: 0.06 µM
- Activity (T-cell [4]): Active
- IC50 (Keratinocyte): 1 µM
- IC50 (MCF7): 25 µM
- IC50 (HT-29): 8 µM
- Inhibition (T-cell [5]): 92%
- Activity [3]: 71
- Activity (3T3-L1): Active

SMILES: CN(CCOc1ccc(CC2SC(=O)NC2=O)cc1)C(=O)CCCCC(S)CCS (stereo unspecified)
- EC50 [2]: 0.075 µM
- Activity (T-cell [4]): Active
- Inhibition (T-cell [5]): 80%
- Activity [3]: 129

SMILES: CN(CCOc1ccc(CC2SC(=O)NC2=O)cc1)C(=O)CCCCC1CCSS1 (stereo unspecified)
- EC50 [2]: 0.015 µM
- Activity (Rattus norvegicus [6]): 83% and 54 mg/dl
- solubility [7]: 39 µg/mL (≈ 83.2 µM)
- Activity (T-cell [4]): Active
- IC50 (Keratinocyte): 0.6 µM
- IC50 (MCF7): 15 µM
- IC50 (HT-29): 10 µM
- Inhibition (T-cell [5]): 92%
- Activity (Rattus norvegicus [8]): 180 mg/dL
- Activity (3T3-L1): Active

SMILES: CN(CCOc1ccc(CC2SC(=O)NC2=O)cc1)C(=O)CCC1CCSS1 (stereo unspecified)
- Activity [1]: inactive

SMILES: CN(CCOc1ccc(CC2SC(=O)NC2=O)cc1)c1ccccn1 (stereo unspecified) [ROSIGLITAZONE]
- IC50 (Keratinocyte): 8 µM
- IC50 (MCF7): > 50 µM
- IC50 (HT-29): 45 µM
- Inhibition (T-cell [5]): 75%

SMILES: CC(=O)SC(CCCCC(=O)N(C)CCOc1ccc(CC2SC(=O)NC2=O)cc1)CCSC(=O)CN (stereo unspecified)
- EC50 [2]: 0.195 µM
- Activity [3]: 138

Now from value to compound:

- Activity [1]: inactive
SMILES: CN(C(=O)CCCCC1CCSS1)c1ccc(CC2SC(=O)NC2=O)cc1 (stereo unspecified)

- EC50 [2]: 18.5 µM
SMILES: COC(=O)Cc1ccc(OCCCN(C)C(=O)CCCCC2CCSS2)c(Cl)c1 (stereo unspecified)

- EC50 [2]: 10 µM
SMILES: O=C(CCCCC1CCSS1)NCCOc1ccc(CC2SC(=O)NC2=O)cc1 (stereo unspecified)

- Activity [1]: inactive
SMILES: CN(CCOc1ccc(CC(=O)O)cc1Cl)C(=O)CCCCC1CCSS1 (stereo unspecified)

- Activity [1]: inactive
SMILES: COC(=O)Cc1ccc(OCCN(C)C(=O)CCCCC2CCSS2)c(Cl)c1 (stereo unspecified)

- EC50 [2]: 11.1 µM
SMILES: CN(CCCCC1CCSS1)CCOc1ccc(CC2SC(=O)NC2=O)cc1 (stereo unspecified) [listing 3 of 3 here]

- EC50 [2]: 0.08 µM
- Activity [3]: 60
SMILES: CN(CCOc1ccc(CC2SC(=O)NC2=O)cc1)C(=O)CCCCC(CCSC(=O)CCC(=O)O)SC(=O)CCC(=O)O (stereo unspecified)

- EC50 [2]: 0.039 µM
- Activity [3]: 150
SMILES: CC(=O)SCCC(CCCCC(=O)N(C)CCOc1ccc(CC2SC(=O)NC2=O)cc1)SC(C)=O (stereo unspecified)

- EC50 [2]: 12.3 µM
SMILES: CN(CCCOc1ccc(CC(=O)O)cc1Cl)C(=O)CCCCC1CCSS1 (stereo unspecified)

- EC50 [2]: 0.15 µM
- Activity [3]: 168
SMILES: CC(=O)SC(CCCCC(=O)N(C)CCOc1ccc(CC2SC(=O)NC2=O)cc1)CCSC(=O)CCC(=O)O (stereo unspecified)
